Assay results: US10806694B2, “Nanoparticles for photodynamic therapy, X-ray induced photodynamic therapy, radiotherapy, radiodynamic therapy, chemotherapy, immunotherapy, and any combination thereof” (The University of Chicago, priority 2014, dated 2020)

Tests used:
[1] = tested on: HT29 cells; settings: 8.5 μM dose, 100 J/cm^2 light dose; cited from earlier work
[2] = Fluorescence lifetime by Time-Correlated Single Photon Counting; fluorescence intensity; type: physicochemical
Experimental: The fluorescence spectra of H2DBP ligand and DBP-UiO NMOF were taken on a spectrofluorophotometer (RF-5301PC, Shimadzu Corporation, Kyoto, Japan).
Time-domain lifetimes were measured on a ChronosBH lifetime fluorimeter (ISS, Inc., Champaign, Ill., United States of America) using Time-Correlated Single Photon Counting (TCSPC) methods. The fluorimeter contained Becker-Hickl SPC-130 detection electronics and an HPM-100-40 Hybrid PMT detector. Tunable picosecond pulsed excitation was provided by a Fianium SC400-2 supercontiuum laser source with integrated pulse picker and AOTF. Emission wavelengths were selected with bandpass filters (Semrock and Chroma). The Instrument Response Function (IRF) was measured to be approximately 120 ps FWHM in a 1% scattering solution of Ludox LS colloidal silica. Lifetimes were fit via a forward convolution method in the Vinci control and analysis software.
Fluorescence spectra of suspensions of Hf-MOF (0.04 mM of L ligand) in water, DMF, and THF were taken with an excitation wavelength of 368.8 nm. […] Fluorescence lifetimes of Hf-MOF, Zr-MOF, and H2L suspensions in water were also examined.

Compound	PDT efficacy [1]	excited state lifetime ([2]; DMF solution or suspension) [ns]	weighted fluorescence lifetime ([2]; suspensions in water) [ns]
PHOTOFRIN®	modest PDT efficacy	–	–
O=C(O)c1ccc(-c2c3ccccc3c(-c3ccc(C(=O)O)cc3)c3ccccc23)cc1 [H2L, 9,10-anthacenyl bis(benzoic acid)]	–	5.34	2.0
